Source: patent publication US20230278972A1, “SUBSTITUTED HALOALKYL SULFONANILIDE HERBICIDES” (FMC Corporation, priority 2020, published 2023)

Assays:
Assay type in all cases: in vivo
[1] = tested on: barnyardgrass (Echinochloa crus-galli); test: Test A preemergence, barnyardgrass; conditions: Preemergence; for Barnyardgrass plant response rating: visual injury on 0 to 100 scale (0 no effect, 100 complete control), approximately 10 days; for Plant response rating, Barnyardgrass: 0 to 100 scale (0 no effect, 100 complete control)
Summary of the method: (§1)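 Preemergence: seeded pots of loam plus sand received a directed soil spray. Postemergence: seedlings at one to two leaves, 2 to 10 cm high, were oversprayed. Each compound was formulated in a non-phytotoxic solvent mix that included a surfactant.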

kochia (Bassia scoparia) [2] = test: Test A preemergence, kochia; conditions: Preemergence; for Kochia plant response rating: visual injury on 0 to 100 scale (0 no effect, 100 complete control), approximately 10 days; for Plant response rating, Kochia: 0 to 100 scale (0 no effect, 100 complete control)
Summary of the method: as §1

[3] = tested on: ragweed (common ragweed, Ambrosia artemisiifolia); test: Test A preemergence, ragweed; conditions: Preemergence; for Ragweed plant response rating: visual injury on 0 to 100 scale (0 no effect, 100 complete control), approximately 10 days; for Plant response rating, Ragweed: 0 to 100 scale (0 no effect, 100 complete control)
Summary of the method: as §1

[4] = tested on: Ryegrass, Italian (Italian ryegrass, Lolium multiflorum); test: Test A preemergence, Ryegrass, Italian; conditions: Preemergence; for Ryegrass, Italian plant response rating: visual injury on 0 to 100 scale (0 no effect, 100 complete control), approximately 10 days; for Plant response rating, Ryegrass, Italian: 0 to 100 scale (0 no effect, 100 complete control)
Summary of the method: as §1

[5] = tested on: Foxtail, Giant (giant foxtail, Setaria faberi); test: Test A preemergence, Foxtail, Giant; conditions: Preemergence; for Foxtail, Giant plant response rating: visual injury on 0 to 100 scale (0 no effect, 100 complete control), approximately 10 days; for Plant response rating, Foxtail, Giant: 0 to 100 scale (0 no effect, 100 complete control)
Summary of the method: as §1

[6] = tested on: pigweed (Amaranthus retroflexus); test: Test A preemergence, pigweed; conditions: for Pigweed plant response rating: visual injury on 0 to 100 scale (0 no effect, 100 complete control), approximately 10 days; for Plant response rating, Pigweed: 0 to 100 scale (0 no effect, 100 complete control)
Summary of the method: (§2)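 Seeds are sown in loam mixed with sand and sprayed on the soil surface right after planting for the preemergence test. Postemergence pots are sprayed once seedlings reach 2 to 10 cm at the one- to two-leaf stage. The same surfactant-containing, non-phytotoxic solvent formulation serves both.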

[7] = tested on: barnyardgrass (Echinochloa crus-galli); test: Test A postemergence, barnyardgrass; conditions: Postemergence, 0 to 100 scale (0 no effect, 100 complete control); for Barnyardgrass plant response rating: visual injury vs untreated controls after approx. 10 days
Summary of the method: as §2

kochia (Bassia scoparia) [8] = test: Test A postemergence, kochia; conditions: Postemergence, 0 to 100 scale (0 no effect, 100 complete control); for Kochia plant response rating: visual injury vs untreated controls after approx. 10 days
Summary of the method: as §1

[9] = tested on: ragweed (common ragweed, Ambrosia artemisiifolia); test: Test A postemergence, ragweed; conditions: Postemergence, 0 to 100 scale (0 no effect, 100 complete control); for Ragweed plant response rating: visual injury vs untreated controls after approx. 10 days
Summary of the method: as §1

[10] = tested on: Ryegrass, Italian (Italian ryegrass, Lolium multiflorum); test: Test A postemergence, Ryegrass, Italian; conditions: Postemergence, 0 to 100 scale (0 no effect, 100 complete control); for Ryegrass, Italian plant response rating: visual injury vs untreated controls after approx. 10 days
Summary of the method: as §1

[11] = tested on: Foxtail, Giant (giant foxtail, Setaria faberi); test: Test A postemergence, Foxtail, Giant; conditions: Postemergence, 0 to 100 scale (0 no effect, 100 complete control); for Foxtail, Giant plant response rating: visual injury vs untreated controls after approx. 10 days
Summary of the method: as §1

[12] = tested on: pigweed (Amaranthus retroflexus); test: Test A postemergence, pigweed; conditions: Postemergence, 0 to 100 scale (0 no effect, 100 complete control); for Pigweed plant response rating: visual injury vs untreated controls after approx. 10 days
Summary of the method: as §1

[13] = tested on: wheat (Triticum aestivum); test: Test A postemergence, wheat; conditions: Postemergence, 0 to 100 scale (0 no effect, 100 complete control); for Wheat plant response rating: visual injury vs untreated controls after approx. 10 days
Summary of the method: as §2

corn (Zea mays) = test: Test A postemergence, corn; conditions: Postemergence, 0 to 100 scale (0 no effect, 100 complete control); for Corn plant response rating: visual injury vs untreated controls after approx. 10 days
Summary of the method: as §1

[14] = tested on: blackgrass (Alopecurus myosuroides); test: Test A postemergence, blackgrass; conditions: Postemergence, 0 to 100 scale (0 no effect, 100 complete control); for Blackgrass plant response rating: visual injury vs untreated controls after approx. 10 days
Summary of the method: as §1

[15] = tested on: galium (catchweed bedstraw, Galium aparine); test: Test A postemergence, galium; conditions: Postemergence, 0 to 100 scale (0 no effect, 100 complete control); for Galium plant response rating: visual injury vs untreated controls after approx. 10 days
Summary of the method: as §2

[16] = 125 g ai/ha, visual injury approx. 10 days
[17] = 125 g ai/ha, visual injury, approx. 10 days
[18] = 500 g ai/ha, visual injury approx. 10 days

Cc1cc(C)c(N(S(=O)(=O)C(F)(F)F)S(=O)(=O)C(F)(F)F)cc1-c1cc(C(F)(F)F)nn(C)c1=O [Compound 61]
20: Plant response rating, Barnyardgrass [7, 16] | Plant response rating, Pigweed [12, 16] | Plant response rating, Corn (corn (Zea mays); [16])
60: Kochia plant response rating (kochia (Bassia scoparia) [8]; 500 g ai/ha) | Galium plant response rating ([15]; 500 g ai/ha)
0: Ragweed plant response rating ([3]; 125 g ai/ha) | Plant response rating, Ragweed ([3]; 500 g ai/ha) | Plant response rating, Ragweed [9, 16] | Plant response rating, Foxtail, Giant [11, 16] | Plant response rating, Blackgrass [14, 16]
30: Ragweed plant response rating ([9]; 500 g ai/ha) | Blackgrass plant response rating ([14]; 500 g ai/ha)
80: Plant response rating, Pigweed ([6]; 500 g ai/ha) | Barnyardgrass plant response rating ([7]; 500 g ai/ha) | Ryegrass, Italian plant response rating ([10]; 500 g ai/ha) | Pigweed plant response rating ([12]; 500 g ai/ha)
10: Corn plant response rating (corn (Zea mays); 500 g ai/ha)
90: Plant response rating, Kochia (kochia (Bassia scoparia) [2]; 500 g ai/ha)
100: Barnyardgrass plant response rating ([1]; 125 g ai/ha) | Plant response rating, Barnyardgrass ([1]; 500 g ai/ha) | Plant response rating, Ryegrass, Italian ([4]; 500 g ai/ha) | Foxtail, Giant plant response rating ([5]; 125 g ai/ha) | Plant response rating, Foxtail, Giant ([5]; 500 g ai/ha)
50: Kochia plant response rating (kochia (Bassia scoparia) [2]; 125 g ai/ha) | Pigweed plant response rating ([6]; 125 g ai/ha) | Plant response rating, Galium [15, 16]
40: Plant response rating, Kochia (kochia (Bassia scoparia) [8]; [16]) | Plant response rating, Ryegrass, Italian [10, 16] | Plant response rating, Wheat [13, 16]
70: Ryegrass, Italian plant response rating ([4]; 125 g ai/ha) | Foxtail, Giant plant response rating ([11]; 500 g ai/ha) | Wheat plant response rating ([13]; 500 g ai/ha)

CCn1cc(-c2cc(NS(=O)(=O)C(F)(F)F)c(C)cc2C)c(=O)n(CC)c1=O [Compound 44]
80: Plant response rating, Pigweed [12, 16] | Plant response rating, Blackgrass [14, 16] | Plant response rating, Galium [15, 16]
10: Plant response rating, Ragweed ([3]; 500 g ai/ha) | Plant response rating, Kochia (kochia (Bassia scoparia) [8]; [16])
60: Plant response rating, Kochia (kochia (Bassia scoparia) [2]; 500 g ai/ha)
20: Plant response rating, Ragweed [9, 16]
100: Barnyardgrass plant response rating ([1]; 125 g ai/ha) | Plant response rating, Barnyardgrass ([1]; 500 g ai/ha) | Ryegrass, Italian plant response rating ([4]; 125 g ai/ha) | Plant response rating, Ryegrass, Italian ([4]; 500 g ai/ha) | Foxtail, Giant plant response rating ([5]; 125 g ai/ha) | Plant response rating, Foxtail, Giant ([5]; 500 g ai/ha) | Plant response rating, Pigweed ([6]; 500 g ai/ha)
50: Ragweed plant response rating ([9]; 500 g ai/ha)
0: Kochia plant response rating (kochia (Bassia scoparia) [2]; 125 g ai/ha) | Ragweed plant response rating ([3]; 125 g ai/ha) | Plant response rating, Corn (corn (Zea mays); [16])
30: Kochia plant response rating (kochia (Bassia scoparia) [8]; 500 g ai/ha) | Plant response rating, Ryegrass, Italian [10, 16] | Ryegrass, Italian plant response rating ([10]; 500 g ai/ha)
40: Pigweed plant response rating ([6]; 125 g ai/ha)
90: Plant response rating, Barnyardgrass [7, 16] | Barnyardgrass plant response rating ([7]; 500 g ai/ha) | Plant response rating, Foxtail, Giant [11, 16] | Foxtail, Giant plant response rating ([11]; 500 g ai/ha) | Pigweed plant response rating ([12]; 500 g ai/ha) | Blackgrass plant response rating ([14]; 500 g ai/ha) | Galium plant response rating ([15]; 500 g ai/ha)
70: Plant response rating, Wheat [13, 16] | Wheat plant response rating ([13]; 500 g ai/ha) | Corn plant response rating (corn (Zea mays); 500 g ai/ha)

Cc1cc(Cl)c(C(=O)N2CCCCC2)cc1NS(=O)(=O)C(F)(F)F [Compound 252]
0: Plant response rating, Barnyardgrass ([7]; 125 g ai/ha) | Plant response rating, Foxtail, Giant ([11]; 125 g ai/ha) | Plant response rating, Wheat ([13]; 125 g ai/ha) | Plant response rating, Corn (corn (Zea mays); [18]) | Plant response rating, Blackgrass ([14]; 125 g ai/ha) | Plant response rating, Blackgrass [14, 18]
40: Plant response rating, Barnyardgrass [1, 17] | Plant response rating, Foxtail, Giant [11, 18] | Plant response rating, Wheat [13, 18]
30: Plant response rating, Barnyardgrass [7, 18] | Plant response rating, Kochia (kochia (Bassia scoparia) [8]; 125 g ai/ha) | Plant response rating, Ryegrass, Italian ([10]; 125 g ai/ha)
100: Barnyardgrass plant response rating ([1]; 500 g ai/ha) | Ryegrass, Italian plant response rating ([4]; 500 g ai/ha) | Plant response rating, Foxtail, Giant [5, 17] | Foxtail, Giant plant response rating ([5]; 500 g ai/ha) | Plant response rating, Pigweed [6, 17] | Pigweed plant response rating ([6]; 500 g ai/ha)
70: Plant response rating, Ryegrass, Italian [10, 18] | Plant response rating, Pigweed ([12]; 125 g ai/ha)
80: Kochia plant response rating (kochia (Bassia scoparia) [2]; 500 g ai/ha) | Plant response rating, Ragweed [3, 17] | Plant response rating, Pigweed [12, 18] | Plant response rating, Galium ([15]; 125 g ai/ha) | Plant response rating, Galium [15, 18]
90: Ragweed plant response rating ([3]; 500 g ai/ha) | Plant response rating, Ragweed [9, 18]
10: Plant response rating, Ragweed ([9]; 125 g ai/ha) | Plant response rating, Corn (corn (Zea mays); 125 g ai/ha)
60: Plant response rating, Kochia (kochia (Bassia scoparia) [2]; [17]) | Plant response rating, Ryegrass, Italian [4, 17] | Plant response rating, Kochia (kochia (Bassia scoparia) [8]; [18])
